Measurements published in US7268152B2, “Glucocorticoid mimetics, methods of making them, pharmaceutical compositions, and uses thereof” (Boehringer Ingelheim Pharmaceuticals, Inc., priority 2002, dated 2007).

Each compound was assayed against T1, human glucocorticoid receptor (GR) complex (Homo sapiens, UniProt P04150) (assay: Glucocorticoid receptor competitive binding assay (fluorescence polarization)). Details: competition with TAMRA-labeled dexamethasone.
T1 construct: made in house; host or cells: insect expression system (baculovirus lysate)
T1 sequence (P04150 1-777): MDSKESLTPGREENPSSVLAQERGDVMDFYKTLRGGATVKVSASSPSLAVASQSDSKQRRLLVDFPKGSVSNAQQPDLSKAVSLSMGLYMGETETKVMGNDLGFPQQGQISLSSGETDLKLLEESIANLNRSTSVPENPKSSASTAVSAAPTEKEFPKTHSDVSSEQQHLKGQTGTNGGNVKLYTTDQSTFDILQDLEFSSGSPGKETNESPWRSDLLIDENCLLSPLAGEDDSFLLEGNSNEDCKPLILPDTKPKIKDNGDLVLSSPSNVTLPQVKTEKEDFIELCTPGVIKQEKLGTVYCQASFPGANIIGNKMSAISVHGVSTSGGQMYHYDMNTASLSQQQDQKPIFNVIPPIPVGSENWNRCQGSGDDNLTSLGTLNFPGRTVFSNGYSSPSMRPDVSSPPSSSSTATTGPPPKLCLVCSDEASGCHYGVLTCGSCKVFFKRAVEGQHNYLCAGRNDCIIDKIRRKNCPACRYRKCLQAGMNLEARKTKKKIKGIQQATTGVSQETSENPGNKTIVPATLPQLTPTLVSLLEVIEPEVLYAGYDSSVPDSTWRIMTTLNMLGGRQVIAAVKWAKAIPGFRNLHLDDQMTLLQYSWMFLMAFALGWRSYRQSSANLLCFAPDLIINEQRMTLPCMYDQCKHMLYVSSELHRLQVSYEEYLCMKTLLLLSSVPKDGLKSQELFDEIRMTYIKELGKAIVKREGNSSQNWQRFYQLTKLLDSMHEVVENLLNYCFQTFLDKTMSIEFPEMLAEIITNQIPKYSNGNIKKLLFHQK
Procedure: Compounds of the invention were evaluated for binding to the steroid receptor by a fluorescence polarization competitive binding assay. Detailed descriptions for preparation of recombinant glucocorticoid receptor (GR) complex used in the assay is described in U.S. provisional application No. 60/291,877, filed May 18, 2001, and incorporated herein by reference in its entirety. Preparation of the tetramethyl rhodamine (TAMRA)-labeled dexamethasone probe was accomplished using a standard literature procedure (M. Pons et al., J. Steroid Biochem., 1985, 22, pp. 267-273).
A. Glucocorticoid Receptor Competitive Binding Assay
Step 1. Characterization of the Fluorescent Probe
The wavelengths for maximum excitation and emission of the fluorescent probe should first be measured. An example of such a probe is rhodamine (TAMRA)-labeled dexamethasone.
The affinity of the probe for the steroid receptor was then determined in a titration experiment. The fluorescence polarization value of the probe in assay buffer was measured on an SLM-8100 fluorometer using the excitation and emission maximum values described above. Aliquots of expression vector lysate were added and fluorescence polarization was measured after each addition until no further change in polarization value was observed. Non-linear least squares regression analysis was used to calculate the dissociation constant of the probe from the polarization values obtained for lysate binding to the probe.
Step 2. Screeningfor Inhibitors of Probe Binding
This assay uses fluorescence polarization (FP) to quantitate the ability of test compounds to compete with tetramethyl rhodamine (TAMRA)-labeled dexamethasone for binding to a human glucocorticoid receptor (GR) complex prepared from an insect expression system. The assay buffer was: 10 mM TES, 50 mM KCl, 20 mM Na2MoO4.2H2O, 1.5 mM EDTA, 0.04% w/v CHAPS, 10% v/v glycerol, 1 mM dithiothreitol, pH 7.4. Test compounds were dissolved to 1 mM in neat DMSO and then further diluted to 10×assay concentration in assay buffer supplemented with 10% v/v DMSO. Test compounds were serially diluted at 10×assay concentrations in 10% DMSO-containing buffer in 96-well polypropylene plates. Binding reaction mixtures were prepared in 96-well black Dynex microtiter plates by sequential addition of the following assay components to each well: […] of 10×test compound solution, 85 μL of GR-containing baculovirus lysate diluted 1:170 in assay buffer, and 50 μL of 15 nM TAMRA-labeled dexamethasone. Positive controls were reaction mixtures containing no test compound; negative controls (blanks) were reaction mixtures containing 0.7 μM to 2 μM dexamethasone. The binding reactions were incubated for 1 hour at room temperature and then read for fluorescence polarization in the LJL Analyst set to 550 nm excitation and 580 nm emission, with the Rhodamine 561 dichroic mirror installed. IC50 values were determined by iterative non-linear curve fitting of the FP signal data to a 4-parameter logistic equation.
Compound CC(C)(CC(O)(Cc1ccc(Cl)c(Cl)c1)C(F)(F)F)c1ccccc1 (centres unmarked) [2-(3,4-Dichlorobenzyl)-1,1,1-trifluoro-4-methyl-4-phenylpentan-2-ol] has an IC50 of no more than 100 nM.
CC(C)(CC(O)(Cc1cc(C(F)(F)F)cc(Cl)c1F)C(F)(F)F)c1ccccc1 (centres unmarked) [2-(3-Chloro-2-fluoro-5-trifluoromethylbenzyl)-1,1,1-trifluoro-4-methyl-4-phenylpentan-2-ol] gave an IC50 of no more than 100 nM.
With COc1ccc(F)cc1C(C)(C)CC(O)(Cc1cc(Cl)ccc1F)C(F)(F)F (centres unmarked) [2-(5-Chloro-2-fluorobenzyl)-1,1,1-trifluoro-4-(5-fluoro-2-methoxyphenyl)-4-methylpentan-2-ol] the IC50 was no more than 100 nM.
COc1ccccc1C(C)(C)CC(O)(Cc1cc(C)cc(C)c1)C(F)(F)F (centres unmarked) [2-(3,5-Dimethylbenzyl)-1,1,1-tri fluoro-4-(2-methoxyphenyl)-4-methylpentan-2-ol] showed an IC50 of no more than 100 nM.
COc1ccc(F)cc1C(C)(C)CC(O)(Cc1ccc(F)c(Cl)c1)C(F)(F)F (centres unmarked) [2-(3-Chloro-4-fluorobenzyl)-1,1,1-trifluoro-4-(5-fluoro-2-methoxyphenyl)-4-methylpentan-2-ol] was tested, and the IC50 was no more than 100 nM.
CC(C)(CC(O)(Cc1cc(C(F)(F)F)cc(Cl)c1F)C(F)(F)F)c1cc(F)ccc1O (centres unmarked) [2-[3-(3-Chloro-2-fluoro-5-trifluoromethylbenzyl)-4,4,4-trifluoro-3-hydroxy-1,1-dimethylbutyl]-4-fluorophenol] showed an IC50 of no more than 100 nM.
Compound Cc1cccc(CC(O)(CC(C)(C)c2cc(F)ccc2O)C(F)(F)F)c1 (centres unmarked) [4-Fluoro-2-[4,4,4-trifluoro-3-hydroxy-1,1-dimethyl-3-(3-methylbenzyl)butyl]phenol] has an IC50 of no more than 100 nM.
Compound CC(C)(CC(O)(Cc1cc(C(F)(F)F)cc(Cl)c1F)C(F)(F)F)c1ccc(Cl)c(Cl)c1 (centres unmarked) [2-(3-Chloro-2-fluoro-5-trifluoromethylbenzyl)-4-(3,4-dichlorophenyl)-1,1,1-trifluoro-4-methylpentan-2-ol] has an IC50 of no more than 100 nM.
With COc1ccc(F)cc1C(C)(C)CC(O)(Cc1cc(F)cc(F)c1)C(F)(F)F (centres unmarked) [2-(3,5-Difluorobenzyl)-1,1,1-trifluoro-4-(5-fluoro-2-methoxyphenyl)-4-methylpentan-2-ol] the IC50 was no more than 100 nM.
CC(C)(CC(O)(Cc1ccc(-c2ccccc2)cc1)C(F)(F)F)c1cc(F)ccc1O (centres unmarked) [2-(3-Biphenyl-4-ylmethyl-4,4,4-trifluoro-3-hydroxy-1,1-dimethylbutyl)-4-fluorophenol] was tested, and the IC50 was no more than 100 nM.
In the case of CC(C)(CC(O)(Cc1cc(C(F)(F)F)cc(Cl)c1F)C(F)(F)F)c1ccc(F)cc1 (centres unmarked) [2-(3-Chloro-2-fluoro-5-trifluoromethylbenzyl)-1,1,1-trifluoro-4-(4-fluorophenyl)-4-methylpentan-2-ol], the IC50 is reported as no more than 100 nM.
For CC(C)(CC(O)(Cc1ccc(O)cc1)C(F)(F)F)c1cc(F)ccc1O (centres unmarked) [4-Fluoro-2-[4,4,4-trifluoro-3-hydroxy-3-(4-hydroxybenzyl)-1,1-dimethylbutyl]phenol], the IC50 was no more than 100 nM.
Cc1ccc(F)cc1C(C)(C)CC(O)(Cc1ccc(Cl)c(Cl)c1)C(F)(F)F (centres unmarked) [2-(3,4-Dichlorobenzyl)-1,1,1-trifluoro-4-(5-fluoro-2-methylphenyl)-4-methylpentan-2-ol] gave an IC50 of no more than 100 nM.
Work on COc1ccc(F)cc1C(C)(C)CC(O)(Cc1ccc(Cl)c(C(F)(F)F)c1)C(F)(F)F (centres unmarked) [2-(4-Chloro-3-trifluoromethylbenzyl)-1,1,1-trifluoro-4-(5-fluoro-2-methoxyphenyl)-4-methylpentan-2-ol] yielded an IC50 of no more than 100 nM.
Work on CC(C)(CC(O)(Cc1cc(C(F)(F)F)cc(C(F)(F)F)c1)C(F)(F)F)c1cc(F)ccc1O (centres unmarked) [2-[3-(3,5-Bis-trifluoromethylbenzyl)-4,4,4-trifluoro-3-hydroxy-1,1-dimethylbutyl]-4-fluorophenol] yielded an IC50 of no more than 100 nM.
Work on COc1ccc(F)cc1C(C)(C)CC(O)(Cc1ccccc1Cl)C(F)(F)F (centres unmarked) [2-(2-Chlorobenzyl)-1,1,1-trifluoro-4-(5-fluoro-2-methoxyphenyl)-4-methylpentan-2-ol] yielded an IC50 of no more than 100 nM.
For COc1ccc(F)cc1C(C)(C)CC(O)(Cc1cccc(Cl)c1F)C(F)(F)F (centres unmarked) [2-(3-Chloro-2-fluorobenzyl)-1,1,1-trifluoro-4-(5-fluoro-2-methoxyphenyl)-4-methylpentan-2ol], the IC50 was no more than 100 nM.
Work on Cc1cc(C)cc(CC(O)(CC(C)(C)c2cc(F)ccc2O)C(F)(F)F)c1 (centres unmarked) [2-[3-(3,5-Dimethylbenzyl)-4,4,4-trifluoro-3-hydroxy-1,1-dimethylbutyl]4-fluorophenol] yielded an IC50 of no more than 100 nM.
Work on COc1ccc(F)cc1C(C)(C)CC(O)(C(=O)Cc1cc(C)cc(C)c1)C(F)(F)F (centres unmarked) [1-(3,5-Dimethylphenyl)-5-(5-fluoro-2-methoxyphenyl)-3-hydroxy-5-methyl-3-trifluoromethylhexan-2-one] yielded an IC50 of no more than 100 nM.
CC(C)(CC(O)(Cc1ccc(Cl)c(Cl)c1)C(F)(F)F)c1cccc(Cl)c1 (centres unmarked) [4-(3-Chlorophenyl)-2-(3,4-dichlorobenzyl)-1,1,1-trifluoro-4-methylpentan-2-ol] showed an IC50 of no more than 100 nM.
In the case of COc1ccc(F)cc1C(C)(C)CC(O)(Cc1cc(C(F)(F)F)cc(C(F)(F)F)c1)C(F)(F)F (centres unmarked) [2-(3,5-Bis-trifluoromethylbenzyl)-1,1,1-trifluoro-4-(5-fluoro-2-methoxyphenyl)-4-methylpentan-2-ol], the IC50 is reported as no more than 100 nM.
In the case of CC(C)(CC(O)(Cc1cc(Cl)cc(Cl)c1)C(F)(F)F)c1ccccc1 (centres unmarked) [2-(3,5-Dichlorobenzyl)-1,1,1-trifluoro-4-methyl-4-phenylpentan-2-ol], the IC50 is reported as no more than 100 nM.
Compound COc1ccc(F)cc1C(C)(C)CC(O)(Cc1cc(Cl)ccc1Cl)C(F)(F)F (centres unmarked) [2-(2,5-Dichlorobenzyl)-1,1,1-trifluoro-4-(5-fluoro-2-methoxyphenyl)-4-methylpentan-2-ol] has an IC50 of no more than 100 nM.
For COc1ccc(F)cc1C(C)(C)CC(O)(Cc1ccc(C)c(C)c1)C(F)(F)F (centres unmarked) [2-(3,4-Dimethylbenzyl)-1,1,1-trifluoro-4-(5-fluoro-2-methoxyphenyl)-4-methylpentan-2-ol], the IC50 was no more than 100 nM.
Work on CC(C)(CC(O)(Cc1cc(C(F)(F)F)cc(Cl)c1F)C(F)(F)F)c1cccc2c1OCC2 (centres unmarked) [2-(3-Chloro-2-fluoro-5-trifluoromethylbenzyl)-4-(2,3-dihydrobenzofuran-7-yl)-1,1,1-trifluoro-4-methylpentan-2-ol] yielded an IC50 of no more than 100 nM.
Compound COc1ccc(F)cc1C(C)(C)CC(O)(Cc1cccc(Cl)c1Cl)C(F)(F)F (centres unmarked) [2-(2,3-Dichlorobenzyl)-1,1,1-trifluoro-4-(5-fluoro-2-methoxyphenyl)-4-methylpentan-2-ol] has an IC50 of no more than 100 nM.
CC(C)(CC(O)(Cc1ccc(F)c(F)c1)C(F)(F)F)c1cc(F)ccc1O (centres unmarked) [2-[3-(3,4-Difluorobenzyl)-4,4,4-trifluoro-3-hydroxy-1,1-dimethylbutyl]4-fluorophenol] showed an IC50 of no more than 100 nM.
In the case of CC(C)(CC(O)(Cc1cc(F)c(F)c(F)c1)C(F)(F)F)c1cc(F)ccc1O (centres unmarked) [4-Fluoro-2-[4,4,4-trifluoro-3-hydroxy-1,1-dimethyl-3-(3,4,5-trifluorobenzyl)butyl]phenol], the IC50 is reported as no more than 100 nM.
For COc1ccc(F)cc1C(C)(C)CC(O)(Cc1cccc(C(F)(F)F)c1F)C(F)(F)F (centres unmarked) [1,1,1-Trifluoro-4-(5-fluoro-2-methoxyphenyl)-2-(2-fluoro-3-trifluoromethylbenzyl)-4-methylpentan-2-ol], the IC50 was no more than 100 nM.
